According to US10934274B2, “Quinoline derivatives as TAM RTK inhibitors” (Qurient Co., Ltd., priority 2015, dated 2021):

Experiments:
TYRO3 = target: T1, TYRO3 (Homo sapiens, UniProt Q06418); experiment: LanthaScreen Eu kinase binding assay, TYRO3; settings: Tracer 236
T1 construct: purchased Life Technologies
T1 sequence (Q06418 41-890): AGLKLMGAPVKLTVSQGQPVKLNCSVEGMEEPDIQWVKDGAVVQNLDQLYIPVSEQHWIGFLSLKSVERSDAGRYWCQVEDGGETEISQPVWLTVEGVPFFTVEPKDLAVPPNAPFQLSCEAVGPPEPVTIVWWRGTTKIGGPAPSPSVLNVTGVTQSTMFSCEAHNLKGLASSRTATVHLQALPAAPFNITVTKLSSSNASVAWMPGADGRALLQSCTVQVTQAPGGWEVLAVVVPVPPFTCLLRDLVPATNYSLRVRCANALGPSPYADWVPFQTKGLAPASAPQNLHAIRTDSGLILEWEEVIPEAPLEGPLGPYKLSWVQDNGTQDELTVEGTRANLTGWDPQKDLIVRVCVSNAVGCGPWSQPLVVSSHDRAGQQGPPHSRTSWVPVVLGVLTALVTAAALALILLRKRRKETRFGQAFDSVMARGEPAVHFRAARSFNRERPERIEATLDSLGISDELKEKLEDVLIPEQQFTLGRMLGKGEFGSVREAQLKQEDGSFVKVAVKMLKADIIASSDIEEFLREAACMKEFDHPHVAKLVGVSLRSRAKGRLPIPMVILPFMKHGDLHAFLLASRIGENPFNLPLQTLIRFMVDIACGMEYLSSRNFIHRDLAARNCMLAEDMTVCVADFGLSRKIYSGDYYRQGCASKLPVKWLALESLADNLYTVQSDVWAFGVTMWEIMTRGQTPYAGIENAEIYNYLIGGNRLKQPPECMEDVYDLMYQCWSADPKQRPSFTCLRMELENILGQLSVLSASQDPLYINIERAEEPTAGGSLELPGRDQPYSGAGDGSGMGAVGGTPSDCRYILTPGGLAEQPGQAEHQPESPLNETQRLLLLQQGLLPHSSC

Mer = target: T2, Mer (Homo sapiens, UniProt Q12866); experiment: LanthaScreen Eu kinase binding assay, Mer; settings: Tracer 236
T2 construct: purchased Life Technologies
T2 sequence (Q12866 21-999): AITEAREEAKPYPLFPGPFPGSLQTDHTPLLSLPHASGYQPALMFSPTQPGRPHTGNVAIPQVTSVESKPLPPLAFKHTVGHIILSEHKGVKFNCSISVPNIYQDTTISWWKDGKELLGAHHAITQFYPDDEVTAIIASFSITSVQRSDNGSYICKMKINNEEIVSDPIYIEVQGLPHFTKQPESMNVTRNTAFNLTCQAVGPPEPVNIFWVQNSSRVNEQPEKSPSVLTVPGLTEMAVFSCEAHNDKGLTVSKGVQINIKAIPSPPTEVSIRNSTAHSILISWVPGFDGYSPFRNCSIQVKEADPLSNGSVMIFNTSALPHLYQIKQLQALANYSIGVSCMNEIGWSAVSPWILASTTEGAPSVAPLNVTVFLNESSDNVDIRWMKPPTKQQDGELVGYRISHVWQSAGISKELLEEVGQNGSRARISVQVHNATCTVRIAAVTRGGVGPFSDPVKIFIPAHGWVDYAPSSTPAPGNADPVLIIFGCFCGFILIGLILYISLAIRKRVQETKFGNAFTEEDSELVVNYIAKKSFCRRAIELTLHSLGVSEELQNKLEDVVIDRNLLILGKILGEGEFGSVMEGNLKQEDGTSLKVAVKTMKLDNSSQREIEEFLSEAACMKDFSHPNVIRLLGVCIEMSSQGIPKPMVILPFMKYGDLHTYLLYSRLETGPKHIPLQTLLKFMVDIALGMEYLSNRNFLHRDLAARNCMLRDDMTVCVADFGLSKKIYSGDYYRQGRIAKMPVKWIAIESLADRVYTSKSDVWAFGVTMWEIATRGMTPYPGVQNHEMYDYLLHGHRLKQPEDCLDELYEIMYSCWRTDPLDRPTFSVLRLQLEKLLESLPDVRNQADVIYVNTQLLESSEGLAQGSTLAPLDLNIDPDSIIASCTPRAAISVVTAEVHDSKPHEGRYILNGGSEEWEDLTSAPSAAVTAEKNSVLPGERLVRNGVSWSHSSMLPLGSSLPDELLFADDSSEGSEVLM

[1] = system: Axl phosphorylation in transiently transfected HEK293T cells; experiment: Cellular Axl phosphorylation assay; type: cell-based; settings: Homo sapiens, HEK-293T; HEK293T cells transfected with Axl, 1 hour compound treatment, Phospho-Axl vs Total-Axl
From the text: Cell AXL Inhibition Assay Principle
The assay is based on the measurement of the relative amounts of Total-Axl and Phosphorylated-Axl in whole cell lysates of transiently transfected HEK293T cells. This assay is based on application of the Mesoscale western blot and subsequent electro-chemiluminescence detection. Overexpression of Axl-RTK (Receptor tyrosine kinase) by transfection leads to an increase in Axl-trans-autophosphorylation events. Upon compound treatment, the correlation of the measured values of Phosphorylated-Axl and Total Axl indicate the potential of the tested compound to inhibit Axl-phosphorylation at the given compound concentration.
Cell AXL Inhibition Assay Protocol
HEK293T cells (2.5×10^4/well) were plated in a 96 well plate and cells were transfected with pcDNA_DEST_40 Axl or pcDNA_DEST_40 by Superfact reagent (Qiagen. Co. Ltd.). After overnight, the transfection reagent of each well was removed from cells and replaced by fresh prewarmed medium. On the following day, cells were treated with the respective test compound which was diluted by the same method, as in the Axl binding assay using DMSO, for 1 hour
After incubation with the test compounds, cells in the well of the plate were lysed using Tris lysis buffer. The lysate was transferred to two plates (total-Axl and phosphor-Axl) Mesoscale high bind plates and incubated for two hours at room temperature. Afterwards the lysates were removed from the plates and the plates were blocked using Blocking buffer. Subsequently Total-Axl antibody (H-124, Santa Cruz) was transferred to one Mesoscale high bind plate, and Phospho-Axl antibody (AF2228, R&D) to the other plate. After 1 h incubation, Sulpho-Tag antibody (goat anti-rabbit, Mesoscale) was added and again incubated for 1 hour. For the measurement, 2×MSD read buffer was added to each well and the plates were analyzed with a Mesoscale Sector Imager 2400. IC50 (half the maximal inhibitory concentration) was determined relative to between the vehicle (DMSO) control group and minimum control group as transfection of the control vector (pcDNA_DEST_40).
The results after this assay are shown in table 3 for selected compounds.

Met = target: T3, Met (Homo sapiens, UniProt P08581); experiment: LanthaScreen Eu kinase binding assay, Met; settings: Tracer 236, read-out: cMet kinase binding activity (Kd)
T3 construct: purchased Life Technologies
T3 sequence (P08581 25-1390): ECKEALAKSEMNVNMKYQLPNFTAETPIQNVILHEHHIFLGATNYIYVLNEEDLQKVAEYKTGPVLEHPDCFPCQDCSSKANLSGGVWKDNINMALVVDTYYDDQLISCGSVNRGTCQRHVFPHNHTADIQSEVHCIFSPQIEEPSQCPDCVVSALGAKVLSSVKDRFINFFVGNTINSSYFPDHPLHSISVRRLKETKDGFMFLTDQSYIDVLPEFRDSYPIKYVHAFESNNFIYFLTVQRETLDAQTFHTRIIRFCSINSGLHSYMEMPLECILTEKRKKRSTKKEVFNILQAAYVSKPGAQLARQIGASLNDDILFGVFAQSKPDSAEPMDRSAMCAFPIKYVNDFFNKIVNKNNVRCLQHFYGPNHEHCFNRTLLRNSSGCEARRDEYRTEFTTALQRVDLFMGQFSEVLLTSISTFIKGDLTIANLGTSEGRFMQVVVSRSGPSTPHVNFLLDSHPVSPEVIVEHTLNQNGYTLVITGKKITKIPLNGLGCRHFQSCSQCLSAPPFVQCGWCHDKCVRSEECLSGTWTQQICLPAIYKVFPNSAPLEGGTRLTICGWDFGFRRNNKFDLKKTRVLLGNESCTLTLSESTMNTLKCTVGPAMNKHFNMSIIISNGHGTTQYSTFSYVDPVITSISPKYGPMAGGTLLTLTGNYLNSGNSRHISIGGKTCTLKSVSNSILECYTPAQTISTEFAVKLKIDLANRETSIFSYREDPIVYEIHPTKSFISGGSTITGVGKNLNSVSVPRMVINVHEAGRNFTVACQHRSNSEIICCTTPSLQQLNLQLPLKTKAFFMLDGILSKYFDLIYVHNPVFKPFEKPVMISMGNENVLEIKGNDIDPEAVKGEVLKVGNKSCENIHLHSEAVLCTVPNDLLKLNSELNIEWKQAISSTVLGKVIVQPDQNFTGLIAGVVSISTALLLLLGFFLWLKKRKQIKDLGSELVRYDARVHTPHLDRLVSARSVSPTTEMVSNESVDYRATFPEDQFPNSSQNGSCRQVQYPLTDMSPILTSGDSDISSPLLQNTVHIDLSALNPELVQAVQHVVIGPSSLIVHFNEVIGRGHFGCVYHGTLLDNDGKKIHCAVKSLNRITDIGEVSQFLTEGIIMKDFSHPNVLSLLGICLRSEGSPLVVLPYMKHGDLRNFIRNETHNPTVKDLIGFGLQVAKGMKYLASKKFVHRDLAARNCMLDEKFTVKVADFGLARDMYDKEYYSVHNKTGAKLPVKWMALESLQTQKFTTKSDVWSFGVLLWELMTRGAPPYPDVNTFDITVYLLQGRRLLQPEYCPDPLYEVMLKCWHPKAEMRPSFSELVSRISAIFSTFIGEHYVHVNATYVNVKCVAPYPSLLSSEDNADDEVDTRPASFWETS

C=C(C)c1ccncc1-n1cc(OCC)c(C(=O)Nc2ccc(Oc3ccnc4cc(OC)c(OC)cc34)cn2)n1 [Compound 202]
< 100 nM: Kd (TYRO3) | Kd (Mer) | IC50 [1] | Kd (Met)
